# Reference: patent publication US20260258473A1, “FLUORESCENT PROBE FOR DETECTION OF ENPP ACTIVITY” (THE UNIVERSITY OF TOKYO, priority 2019, published 2026)
# Biological target: ENPP2 (Homo sapiens, UniProt Q13822)
# Experiment: Measurement of plasma sample using a plate reader (ENPP probe fluorescence with and without serum)
# Format: biochemical
# Conditions: compound at 10 μmol/L, ENPP2 at 25 μg/mL, human serum diluted by 10 times vs no serum, multi-well plate, Tris-HCl pH 8.3
# Experimental: First, compounds (4) was diluted to 10 μmol/L with an assay buffer. The assay buffer has the composition of Tris-HCl buffer solution (pH 8.3), magnesium chloride at 1.0 mmol/L and 0.5% CHAPS. Subsequently, ENPP2 at 25 μg/mL and human serum diluted by 10 times were added, and the mixture was dispensed into a multi-well plate. Subsequently, the fluorescence intensity was measured with a plate reader. […] On the other hand, as described above, the measurement method using a microdevice enabled the activity of ENPP to be adequately measured even in the presence of serum.
compound,measurement,value
COc1cc(OC)c(S(=O)(=O)O)cc1-c1c2ccc(=O)cc-2oc2cc(OCOP(=O)(O)OCC3OC(n4cc(C)c(=O)[nH]c4=O)CC3O)ccc12 (stereo not shown) [Compound (4)],measured intensity of the activity of ENPP (fluorescence intensity),lower when serum was present than when serum was not present
